Test results taken from ChEMBL document CHEMBL4334494, “Recent advances in the targeting of human DNA ligase I as a potential new strategy for cancer treatment” (Eur J Med Chem, 2019).
Each block holds one compound with its values, some of them ahead of it.

Experiments:
HT-29 = assay: Antiproliferative activity against human HT-29 cells after 48 hrs by MTT assay; type: functional, cell-based; conditions: HT-29, 48 h
MDA-MB-231 = assay: Antiproliferative activity against human MDA-MB-231 cells after 48 hrs by MTT assay; type: functional, cell-based; conditions: MDA-MB-231, 48 h
HeLa = assay: Antiproliferative activity against human HeLa cells after 48 hrs by MTT assay; type: functional, cell-based
HCT-116 = assay: Antiproliferative activity against human HCT116 cells after 48 hrs by MTT assay; type: functional, cell-based; conditions: HCT-116, 48 h
4T1 = assay: Antiproliferative activity against mouse 4T1 cells after 48 hrs by MTT assay; type: functional, cell-based; conditions: 4T1, 48 h
HepG2 = assay: Antiproliferative activity against human HepG2 cells after 48 hrs by MTT assay; type: functional, cell-based; conditions: HepG2, 48 h
DLD-1 = assay: Antiproliferative activity against human DLD1 cells after 48 hrs by MTT assay; type: functional, cell-based; conditions: DLD-1, 48 h
DNA ligase 1 [1] = biological target: T1, DNA ligase 1 (Homo sapiens, UniProt P18858); assay: Inhibition of human DNA ligase 1 expressed in Escherichia coli BL21DE3RP cells at 50 uM using 52-mer DNA/25-mer DNA/27-mer DNA as substrate after 30 mins by Cyanin3 dye-based fluorescence assay relative to control
T1 sequence (P18858 whole entry): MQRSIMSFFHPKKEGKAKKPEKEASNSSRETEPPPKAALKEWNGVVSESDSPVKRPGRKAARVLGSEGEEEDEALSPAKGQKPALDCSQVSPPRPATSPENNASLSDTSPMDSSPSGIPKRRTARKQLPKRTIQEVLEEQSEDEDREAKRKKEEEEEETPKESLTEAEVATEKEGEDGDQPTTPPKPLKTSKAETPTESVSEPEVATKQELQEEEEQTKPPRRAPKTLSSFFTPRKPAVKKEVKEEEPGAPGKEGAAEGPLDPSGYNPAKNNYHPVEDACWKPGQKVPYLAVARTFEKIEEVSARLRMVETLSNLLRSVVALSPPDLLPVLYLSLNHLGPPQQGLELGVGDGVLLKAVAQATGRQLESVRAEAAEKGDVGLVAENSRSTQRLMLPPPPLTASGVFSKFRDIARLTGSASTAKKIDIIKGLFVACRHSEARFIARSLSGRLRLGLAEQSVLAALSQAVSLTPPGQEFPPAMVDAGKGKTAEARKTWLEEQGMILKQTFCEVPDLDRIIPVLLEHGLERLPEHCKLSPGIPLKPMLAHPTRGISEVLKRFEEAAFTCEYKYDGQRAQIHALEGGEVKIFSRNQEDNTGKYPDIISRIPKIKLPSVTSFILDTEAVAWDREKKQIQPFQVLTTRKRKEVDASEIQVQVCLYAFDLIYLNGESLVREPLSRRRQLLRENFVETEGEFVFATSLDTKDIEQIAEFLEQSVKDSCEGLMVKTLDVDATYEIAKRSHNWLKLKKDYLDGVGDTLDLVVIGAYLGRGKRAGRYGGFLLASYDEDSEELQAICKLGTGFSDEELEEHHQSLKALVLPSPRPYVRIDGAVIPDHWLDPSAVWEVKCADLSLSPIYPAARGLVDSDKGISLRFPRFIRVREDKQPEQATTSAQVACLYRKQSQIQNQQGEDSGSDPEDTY

DNA ligase 1 [2] = biological target: T1, DNA ligase 1; assay: Inhibition of human DNA ligase 1 using 52-mer DNA/25-mer DNA/27-mer DNA as substrate by fluorescence assay
DNA ligase 1 [3] = biological target: T1, DNA ligase 1; assay: Inhibition of human DNA ligase 1 at 50 uM using 52-mer DNA/25-mer DNA/27-mer DNA as substrate by fluorescence assay relative to control
DNA ligase 1 [4] = biological target: T1, DNA ligase 1; assay: Inhibition of human DNA ligase 1 expressed in Escherichia coli BL21 (DE3) cells using nicked DNA as substrate preincubated for 30 mins followed by substrate addition measured after 1 hr

IC50 (HT-29): < 10 µM | IC50 (MDA-MB-231): < 10 µM | IC50 (HeLa): < 10 µM | IC50 (HCT-116): < 10 µM | IC50 (4T1): < 10 µM | IC50 (HepG2): < 10 µM | IC50 (DLD-1): < 10 µM | inhibition (DNA ligase 1 [1]): > 75%
Structure (SMILES): Cc1ccccc1/C=C1\CN(C(=S)NC(=O)c2ccccc2)C/C(=C\c2ccccc2C)C1=O

IC50 (DNA ligase 1 [2]): 356 µM
Structure (SMILES): C/C=C/C=C1\C=Cc2c(C(=O)OC)coc(=O)c21 [FULVOPLUMIERIN]

inhibition (DNA ligase 1 [3]): 61.1%
Structure (SMILES): Cc1cc(NC(=O)CN2CCN(C(=O)OC(C)(C)C)CC2)c2cc(NC(=O)Nc3ccc(C)c(Cl)c3)ccc2n1

IC50 (HT-29): < 10 µM | IC50 (MDA-MB-231): < 10 µM | IC50 (HeLa): < 10 µM | IC50 (HCT-116): < 10 µM | IC50 (4T1): < 10 µM | IC50 (HepG2): < 10 µM | IC50 (DLD-1): < 10 µM | inhibition (DNA ligase 1 [1]): > 75%
Structure (SMILES): Cc1ccc(/C=C2\CN(C(=S)NCCc3ccccc3)C/C(=C\c3ccc(C)cc3)C2=O)cc1

inhibition (DNA ligase 1 [3]): 10.8%
Structure (SMILES): COC(=O)N1CCN(CC(=O)Nc2cc(C)nc3ccc(NC(=O)Nc4ccc(Br)cc4)cc23)CC1

IC50 (DNA ligase 1 [2]): 322 µM
Structure (SMILES): C[n+]1cc2c3c(ccc2c2ccc4cc5c(cc4c21)OCO5)OCO3 [SANGUINARINE NITRATE]

IC50 (DNA ligase 1 [2]): 208 µM
Structure (SMILES): CC1(C)CC[C@]2(C(=O)O)CC=C3[C@]4(C)CC[C@H]5C(C)(C)[C@@H](O)CC[C@]5(C)[C@H]4CC[C@@]3(C)[C@@H]2C1 [ALEURITOLIC ACID]

IC50 (HT-29): < 10 µM | IC50 (MDA-MB-231): < 10 µM | IC50 (HeLa): < 10 µM | IC50 (HCT-116): < 10 µM | IC50 (4T1): < 10 µM | IC50 (HepG2): < 10 µM | IC50 (DLD-1): < 10 µM | inhibition (DNA ligase 1 [1]): > 75%
Structure (SMILES): Cc1ccc(/C=C2\CN(C(=S)NC(=O)c3ccccc3)C/C(=C\c3ccc(C)cc3)C2=O)cc1

IC50 (HT-29): < 10 µM | IC50 (MDA-MB-231): < 10 µM | IC50 (HeLa): < 10 µM | IC50 (HCT-116): < 10 µM | IC50 (4T1): < 10 µM | IC50 (HepG2): < 10 µM | IC50 (DLD-1): < 10 µM | inhibition (DNA ligase 1 [1]): > 75%
Structure (SMILES): CCCCNC(=S)N1C/C(=C\c2ccccc2F)C(=O)/C(=C/c2ccccc2F)C1

IC50 (DNA ligase 1 [4]): 13.9 µM
Structure (SMILES): O=C1Nc2ccccc2/C1=N/Nc1cn[nH]c(=O)c1Cl

IC50 (DNA ligase 1 [4]): 14.1 µM
Structure (SMILES): O=C1/C(=N\Nc2cn[nH]c(=O)c2Cl)c2cc(Cl)ccc2N1c1ccc(Cl)cc1

inhibition (DNA ligase 1 [3]): 56.2%
Structure (SMILES): COc1ccc(NC(=S)NCC23C=CC(O2)C2C(=O)N(c4ccccc4)C(=O)C23)c([N+](=O)[O-])c1 (stereo not given)

IC50 (DNA ligase 1 [4]): 26.5 µM
Structure (SMILES): O=C1/C(=N\Nc2cn[nH]c(=O)c2Cl)c2ccccc2N1c1ccc(Cl)cc1

IC50 (DNA ligase 1 [2]): 263 µM
Structure (SMILES): C[C@H]1[C@H](C)CC[C@]2(C(=O)O)CC[C@]3(C)C(=CC[C@@H]4[C@@]5(C)CC[C@H](O)C(C)(C)[C@@H]5CC[C@]43C)[C@H]12 [URSOLIC ACID]

IC50 (HT-29): < 10 µM | IC50 (MDA-MB-231): < 10 µM | IC50 (HeLa): < 10 µM | IC50 (HCT-116): < 10 µM | IC50 (4T1): < 10 µM | IC50 (HepG2): < 10 µM | IC50 (DLD-1): < 10 µM | inhibition (DNA ligase 1 [1]): > 75%
Structure (SMILES): CCCCNC(=S)N1C/C(=C\c2ccc(C)cc2)C(=O)/C(=C/c2ccc(C)cc2)C1

Structure (SMILES): O=c1c(O)c(-c2cc(O)c(O)c(O)c2)oc2cc(O)cc(O)c12 [MYRICETIN]
IC50 (DNA ligase 1 [2]): 88 µM

inhibition (DNA ligase 1 [3]): 22.4%
Structure (SMILES): COc1cccc(NC(=S)NCC23C=CC(O2)C2C(=O)N(c4ccccc4Cl)C(=O)C23)c1 (stereo not given)

inhibition (DNA ligase 1 [3]): 75.9%
Structure (SMILES): COc1cc([N+](=O)[O-])ccc1NC(=S)NCC12C=CC(O1)C1C(=O)N(c3c(Cl)cccc3Cl)C(=O)C12 (stereo not given)

inhibition (DNA ligase 1 [3]): 1.5%
Structure (SMILES): CCOC(=O)N1CCN(CC(=O)Nc2cc(C)nc3ccc(NC(=O)Nc4ccc(Cl)cc4)cc23)CC1

Structure (SMILES): O=C1/C(=N\Nc2cn[nH]c(=O)c2Cl)c2cc(Br)ccc2N1c1ccc(Cl)cc1
IC50 (DNA ligase 1 [4]): 15.5 to 18.8 µM
